This is an account of results in US20240148895A1, “ANTIBODY-DRUG CONJUGATE” (Eisai R&D Management Co., Ltd., priority 2022, published 2024).

Test [1] has as its system Human pancreatic cancer cell line HPAF-II. Briefly: HPAF-II growth inhibition assay (Example 317). The test is classed as cell-based. The following applies: 120 h, HPAF-II cells, 5 days culture, CellTiter Glo 2.0 (Example 317, Table 11), read-out: Absolute IC50. As to the method: Cells of the human pancreatic cancer cell line HPAF-II (ATCC Number CRL-1997) were maintenance cultured in a 5% CO2 incubator (37° C.) using RPMI 1640 (FujiFilm-Wako Pure Chemical Industries) containing 10% fetal bovine serum (FBS: SIGMA 173012) and penicillin/streptomycin (FujiFilm-Wako Pure Chemical Industries) (hereunder referred to simply as “culture medium”). After adding 25 μL of HPAF-II cell suspension prepared to 3.2×10^4 cells/mL using culture medium into each well of a 384-well plate (Greiner 781091), the cells were cultured overnight in a 5% CO2 incubator (37° C.). On the following day, 25 μL of the test substance diluted with culture medium was added to each well, and culturing was continued for 5 days in a 5% CO2 incubator (37° C.). Next, 25 μL of CellTiter Glo™ 2.0 (Promega) was added to each well, and the plate contents were mixed for 5 minutes using a plate mixer. The plate was stationed for 10 minutes at room temperature while shielded from light, and then the luminous intensity was measured with an ENVISION′ (Perkin-Elmer). The luminescence value of the wells with addition of test substance was determined as a relative value, with 100% as the luminescence value of the wells with cells but without addition of the test substance and 0% as the luminescence value of the wells without cells. […]

The target in test [2] is HiBiT tagged BRD4-BD1 protein in HEK293/LgBiT/hPGK/HiBiT-BRD4-BD1 cells (Homo sapiens, UniProt O60885). Briefly: BET BD1 domain degradation assay. The test is classed as cell-based. The following applies: concentration for 50% reduction in HiBiT-BRD4-BD1 protein level, 3 hours, read-out: Absolute DC50—3 h (nM) HEK293_HiBiT-BRD4-BD1. Set-up: HiBit-linker-BRD4 BD1(1-209); host or cells: HEK293 (ATCC CRL-1573) stably transduced with LgBiT and HiBiT-BRD4-BD1. The source says: HEK293/LgBiT/hPGK/HiBiT-BRD4-BD1 cells were established by introducing LgBiT and HiBiT-BRD4-BD1 into the human fetus renal cell line HEK293 (ATCC Number CRL-1573). LgBiT was introduced using lentivirus vector LV[Exp]-Bsd-EFS>{LgBiT}, and HiBiT-BRD4-BD1 was introduced with lentivirus vector LV[Exp]-Puro-hPGK>{HiBit-linker-BRD4 BD1(1-209)}. The vector plasmids LV[Exp]-Bsd-EFS>{LgBiT} and LV[Exp]-Puro-hPGK>{HiBit-linker-BRD4_BD1(1-209)} were constructed by VectorBuilder Co. The lentivirus was produced using a Mission Lentivirus Packaging Mix (Sigma) according to the manufacturer's protocol. Viral infection and drug selection of infected cells were carried out by the following published method (Akagi T. et. al, PNAS 2003; 100:13567-72). The cells were maintenance cultured in a 5% CO2 incubator (37° C.), using culture medium. A 45 μL portion of cell suspension of HEK293/LgBiT/hPGK/HiBiT-BRD4-BD1 cells prepared to 6.7×10^4 cells/mL using culture medium was added to each well of a collagen I-coated 384-well plate (Falcon 356667), and the cells were cultured overnight in a 5% CO2 incubator (37° C.). On the following day, 5 μL of test substance diluted with RPMI-1640 (FujiFilm-Wako Pure Chemical Industries) containing 10% fetal bovine serum (FBS: SIGMA 173012) and penicillin/streptomycin (FujiFilm-Wako Pure Chemical Industries) was added to each well, and culturing was continued for 3 hours in a 5% CO2 incubator (37° C.). The luminous intensity was measured using a Nono-Glo HiBiT Lytic Detection System (Promega), and the intracellular HiBiT tagged BRD4-BD1 protein level was calculated. After culturing, 25 μL of measuring reagent was added to each well and the plate contents were mixed for 5 minutes using a plate mixer. The plate was stationed for 10 minutes at room temperature while shielded from light, and then the luminous intensity was measured with an ENVISION′ (Perkin-Elmer). The luminescence value of the wells with addition of test substance was determined as a relative value, with 100% as the luminescence value of the wells with cells but without addition of the test substance, and 0% as the luminescence value of the wells without cells. A plot of test substance concentration against luminescence value % approximated a 4-parameter logistic curve, and the test substance concentration necessary for 50% reduction in protein level (Absolute DC50) was calculated and is shown in Table 4.

In another test the test system is AsPC-1/Cas9 cell line. Briefly: AsPC-1/Cas9 growth inhibition assay. The following applies: Homo sapiens, ASPC1, 120 h, AsPC-1/Cas9 cells, 5 days culture, CellTiter Glo 2.0; read-out: Absolute IC50—Day 5 (nM) AsPC-1 Cas9. The format is cell-based, human. As for the experimental part: The human pancreatic cancer cell line AsPC-1 (ATCC Number CRL1682) was infected with Edit-R Lentiviral hCMV-Blast-Cas9 Nuclease Particle (Dharmacon, VCAS10124) in the presence of 8 μg/ml of Hexadimethrine bromide (Sigma, H9268), and after 24 hours it was exposed to 10 μg/ml of Blastcidin S (Thermo, A11139) to remove the uninfected cells, thereby establishing an AsPC-1/Cas9 cell line. The cells were maintenance cultured in a 5% CO2 incubator (37° C.) using RPMI-1640 (FujiFilm-Wako Pure Chemical Industries) containing 10% fetal bovine serum (FBS: SIGMA 173012) and penicillin/streptomycin (FujiFilm-Wako Pure Chemical Industries) (hereunder referred to simply as “culture medium”). After adding 45 μL of AsPC-1/Cas9 cell suspension prepared to 2.0×10^4 cells/mL using culture medium into each well of a 384-well plate (Greiner 781091), the cells were cultured overnight in a 5% CO2 incubator (37° C.). On the following day, 5 μL of the test substance diluted with culture medium was added to each well, and culturing was continued for 5 days in a 5% CO2 incubator (37° C.). Next, 25 μL of CellTiter Glo™ 2.0 (Promega) was added to each well, and the plate contents were mixed for 5 minutes using a plate mixer. The plate was stationed for 10 minutes at room temperature while shielded from light, and then the luminous intensity was measured with an ENVISION™ (Perkin-Elmer). The luminescence value of the wells with addition of test substance was determined as a relative value, with 100% as the luminescence value of the wells with cells but without addition of the test substance, and 0% as the luminescence value of the wells without cells. A plot of test substance concentration against luminescence value % approximated a 4-parameter logistic curve, and the test substance concentration necessary for 50% inhibition of cell growth (Absolute IC50) was calculated, and is shown in Table 4.

For orientation: IC50 means the midpoint of a concentration-inhibition curve. Usually DC50 stands for the concentration giving 50% degradation. With `COc1ccc(C#CCNC2(C)CCN(C3CCN(c4nc([C@@](CO)(OC5CC5)c5ccccc5)c5cc(-c6cn(C)c(=O)c7[nH]ccc67)ccc5n4)CC3)CC2)cc1N1CCC(=O)N(CNC(=O)[C@H](CC(N)=O)NC(C)=O)C1=O` [Example 135, (S)-2-Acetamide-N1-((3-(5-(3-((1′-(4-((S)-1-cyclopropoxy-2-hydroxy-1-phenylethyl)-6-(6-methyl-7-oxo-6,7-dihydro-1H-pyrrolo[2,3-c]pyridin-4-yl)quinazolin-2-yl)-4-methyl-[1,4′-bipiperidin]-4-yl)amino)prop-1-yn-1-yl)-2-methoxyphenyl)-2,6-dioxotetrahydropyrimidine-1(2H)-yl)methyl)succinamide], the half-maximal inhibitory concentration (IC50) in test [1] is 2.9 nM; in the test on AsPC-1/Cas9 cell line, 2.4 nM. In addition, the DC50 in test [2] is more than 100 nM.
